Data reported in US20050118253A1, “Systemic delivery of serum stable plasmid lipid particles for cancer therapy” (Protiva Biotherapeutics, Inc., priority 1998, published 2005).

System: MCA-207 fibrosarcoma tumor cells
Experiment: Growth of MCA-207 tumors (Example 11)
Format: in vivo, C57 mice
Conditions: ganciclovir with empty liposomes (data not shown)
Procedure: This example describes the treatment of tumors using the method of the invention. […] The general method is set out in FIG. 8.
24 female C57 mice were seeded with 100,000 MCA-207 fibrosarcoma tumor cells (provided by S. Rosenberg, National Cancer Institute, Frederick/Bethesda, MD) by intra-dermal injection on day zero. The tumor cells had been cultivated and prepared according to standard techniques using RPMI media with 10% Fetal Bovine Serum (see for example Current Protocols in Molecular Biology). Beginning on day 5, all animals were treated with the lipid/therapeutic nucleic acid formulation listed in the chart, supra. The formulation was delivered intravenously through the tail vein. 80 μg of pINEX-TK10 DNA were injected in a total volume of 200 μL. Treatments were administered on days 5, 7, 9, 11 and 13.
Beginning on day 5, all animals were treated with ganciclovir twice daily. 1 mg (˜50 mg/kg) were injected intra-peritoneally in a total volume of 200 μL PBS. Treatments continued twice daily for 12 days (see, FIG. 9(A)). Mice were monitored for tumor growth.

With `Nc1nc(O)c2ncn(COC(CO)CO)c2n1` [ganciclovir] the Tumor reduction was “no effect”.
